Where “and” joins values, the source holds several entries; their conditions need not be identical. Equal entries are not always repeated.

The target in this assay is human mGluR5A (Homo sapiens, UniProt P41594). Put plainly: mGluR5 FLIPR Assay. Type of assay: cell-based. The note with it: positive modulator activity; HEK293 (ZF) cells with human mGluR5A and rat GLAST; Ca++ response to ~EC10 glutamate.
Sequence of human mGluR5A (P41594 21-1180 isoform P41594-2): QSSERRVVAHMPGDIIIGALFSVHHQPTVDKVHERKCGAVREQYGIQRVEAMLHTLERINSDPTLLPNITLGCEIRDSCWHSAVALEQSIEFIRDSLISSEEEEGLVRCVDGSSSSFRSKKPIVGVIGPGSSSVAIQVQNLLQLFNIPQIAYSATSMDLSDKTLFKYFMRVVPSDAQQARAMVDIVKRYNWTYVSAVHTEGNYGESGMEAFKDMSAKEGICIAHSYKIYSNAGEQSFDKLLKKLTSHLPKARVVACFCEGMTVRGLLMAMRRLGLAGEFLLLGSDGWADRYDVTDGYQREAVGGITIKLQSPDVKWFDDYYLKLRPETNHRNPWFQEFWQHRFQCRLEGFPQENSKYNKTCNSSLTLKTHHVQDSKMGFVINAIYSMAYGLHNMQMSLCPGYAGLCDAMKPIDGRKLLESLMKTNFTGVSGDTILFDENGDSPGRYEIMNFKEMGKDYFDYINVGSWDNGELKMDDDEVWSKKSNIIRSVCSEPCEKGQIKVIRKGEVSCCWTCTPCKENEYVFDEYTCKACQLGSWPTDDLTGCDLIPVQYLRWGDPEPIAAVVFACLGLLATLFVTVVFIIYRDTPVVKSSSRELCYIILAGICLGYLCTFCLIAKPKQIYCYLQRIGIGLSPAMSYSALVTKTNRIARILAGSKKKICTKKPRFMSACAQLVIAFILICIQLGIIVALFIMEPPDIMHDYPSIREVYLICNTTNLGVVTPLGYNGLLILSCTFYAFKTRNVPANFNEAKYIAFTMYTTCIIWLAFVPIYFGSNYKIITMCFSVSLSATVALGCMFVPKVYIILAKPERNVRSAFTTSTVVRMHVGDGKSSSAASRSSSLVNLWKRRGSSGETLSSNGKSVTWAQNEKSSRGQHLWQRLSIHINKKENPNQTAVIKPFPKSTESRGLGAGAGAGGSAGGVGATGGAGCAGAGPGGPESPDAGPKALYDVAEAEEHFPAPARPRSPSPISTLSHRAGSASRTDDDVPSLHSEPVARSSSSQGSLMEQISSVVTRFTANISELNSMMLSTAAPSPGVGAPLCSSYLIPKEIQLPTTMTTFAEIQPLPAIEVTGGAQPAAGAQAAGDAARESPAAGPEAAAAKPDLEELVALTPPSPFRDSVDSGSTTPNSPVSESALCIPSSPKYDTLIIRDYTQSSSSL
`COc1cccc([C@H]2OC(=O)N[C@@H]2c2cccc(C#Cc3ccccc3)c2)c1` [Example 1, (+)-(4R,5R)-5-(3-Methoxyphenyl)-4-(3-(phenylethynyl)phenyl)oxazolidin-2-one]: the EC50 is < 0.1 µM and 0.039 µM.
Then `COc1cccc([C@@H]2OC(=O)N[C@H]2c2cccc(C#Cc3ccccc3)c2)c1` [Example 2, (4S,5S)-5-(3-Methoxyphenyl)-4-(3-(phenylethynyl)phenyl)oxazolidin-2-one], with greater than 30 µM; and `COc1cccc([C@H]2OC(=O)N[C@@H]2c2cccc(C#Cc3ccc(F)cc3)n2)c1` [Example 7, (4R,5R)-4-(6-((4-Fluorophenyl)ethynyl)pyridin-2-yl)-5-(3-methoxyphenyl)oxazolidin-2-one], with greater than 1 µM.
Take `COc1cccc([C@H]2OC(=O)N[C@@H]2c2cccc(C#Cc3cccc(F)c3)n2)c1` [Example 8, (4R,5R)-4-(6-((3-Fluorophenyl)ethynyl)pyridin-2-yl)-5-(3-methoxyphenyl)oxazolidin-2-one]: the EC50 is greater than 1 µM.
In the case of `COc1cccc([C@H]2OC(=O)N[C@@H]2c2cccc(C#Cc3ccccc3F)n2)c1` [Example 9, (4R,5R)-4-(6-((2-Fluorophenyl)ethynyl)pyridin-2-yl)-5-(3-methoxyphenyl)oxazolidin-2-one] it was greater than 1 µM; in that of `O=C1N[C@H](c2cccc(C#Cc3ccccc3F)n2)[C@@H](c2ccccc2)O1` [Example 12], greater than 1 µM; in that of `O=C1N[C@H](c2ccnc(C#Cc3ccccc3)c2)[C@@H](c2ccccc2)O1` [Example 20, (4R,5R)-5-Phenyl-4-(2-(phenylethynyl)pyridin-4-yl)oxazolidin-2-one], less than 0.1 µM.
Then `O=C1N[C@H](c2ccnc(C#Cc3ccccn3)c2)[C@@H](c2ccccc2)O1` [Example 22, (4R,5R)-5-Phenyl-4-(2-(pyridin-2-ylethynyl)pyridin-4-yl)oxazolidin-2-one], with greater than 1 µM; and `O=C1N[C@H](c2ccnc(C#Cc3cccnc3)c2)[C@@H](c2ccccc2)O1` [Example 23, (4R,5R)-5-Phenyl-4-(2-(pyridin-3-ylethynyl)pyridin-4-yl)oxazolidin-2-one], with less than 0.1 µM; and `O=C1N[C@H](c2cncc(C#Cc3ccccn3)c2)[C@@H](c2cccc(F)c2)O1` [Example 34, (4R,5R)-5-(3-Fluorophenyl)-4-(5-(pyridin-2-ylethynyl)pyridin-3-yl)oxazolidin-2-one], with greater than 1 µM.
In the case of `O=C1N[C@H](c2cncc(C#Cc3cccnc3)c2)[C@@H](c2cccc(F)c2)O1` [Example 35, (4R,5R)-5-(3-Fluorophenyl)-4-(5-(pyridin-3-ylethynyl)pyridin-3-yl)oxazolidin-2-one] it was < 0.1 µM and 0.0063 µM; in that of `COc1cccc([C@H]2OC(=O)N[C@@H]2c2cccc(C#Cc3cccnc3)c2)c1` [Example 46], less than 0.1 µM; in that of `COc1cccc([C@H]2OC(=O)N[C@@H]2c2cccc(C#Cc3ccccn3)c2)c1` [Example 47, (4R,5R)-5-(3-Methoxyphenyl)-4-(3-(pyridin-2-ylethynyl)phenyl)oxazolidin-2-one], < 0.1 µM and 0.0074 µM.
`COc1cccc([C@H]2OC(=O)N[C@@H]2c2cccc(C#Cc3cccc(C)n3)c2)c1` [Example 48, (4R,5R)-5-(3-Methoxyphenyl)-4-(3-((6-methylpyridin-2-yl)ethnyl)phenyl)oxazolidin-2-one] gave a concentration for a half-maximal effect (EC50) greater than 1 µM.
As to `COc1cncc(C#Cc2cccc([C@H]3NC(=O)O[C@@H]3c3cccc(OC)c3)c2)c1` [Example 49], the EC50 is greater than 1 µM.
Take `COc1cccc([C@H]2OC(=O)N[C@@H]2c2cccc(C#Cc3cncc(Cl)c3)c2)c1` [Example 50, (4R,5R)-4-(3-((5-Chloropyridin-3-yl)ethnyl)phenyl)-5-(3-methoxyphenyl)oxazolidin-2-one]: the 50% effective concentration (EC50) was 0.1 to 1 µM and 0.353 µM.
In the case of `COc1cccc([C@H]2OC(=O)N[C@@H]2c2cccc(C#Cc3ccncc3)c2)c1` [Example 51] it was less than 0.1 µM; in that of `COc1cccc([C@H]2OC(=O)N[C@@H]2c2cccc(C#Cc3csc(C)n3)c2)c1` [Example 52, (4R,5R)-5-(3-Methoxyphenyl)-4-(3-((2-methylthiazol-4-yl)ethnyl)phenyl)oxazolidin-2-one], greater than 30 µM.
In the case of `COc1cccc([C@H]2OC(=O)N[C@@H]2c2cccc(C#Cc3cccnc3C#N)c2)c1` [Example 53, 3-((3-((4R,5R)-5-(3-Methoxyphenyl)-2-oxooxazolidin-4-yl)phenyl)ethynyl)picolinonitrile] it was greater than 1 µM; in that of `COc1cccc([C@H]2OC(=O)N[C@@H]2c2cccc(C#Cc3cccc(C)c3)c2)c1` [Example 54, (4R,5R)-5-(3-Methoxyphenyl)-4-(3-(m-tolylethnyl)phenyl)oxazolidin-2-one], greater than 1 µM; in that of `COc1cccc([C@H]2OC(=O)N[C@@H]2c2cccc(C#Cc3cccc(C#N)c3)c2)c1` [Example 55], less than 0.1 µM.
`COc1cccc([C@H]2OC(=O)N[C@@H]2c2cccc(C#Cc3ccnc(C#N)c3)c2)c1` [Example 56, 4-((3-((4R,5R)-5-(3-Methoxyphenyl)-2-oxooxazolidin-4-yl)phenyl)ethynyl)nicolinonitrile]: the half-maximal effective concentration (EC50) is greater than 1 µM.
Then `COc1cccc([C@H]2OC(=O)N[C@@H]2c2cccc(C#Cc3ccnc(Cl)c3)c2)c1` [Example 57, (4R,5R)-4-(3-((2-Chloropyridin-4-yl)ethynyl)phenyl)-5-(3-methoxyphenyl)oxazolidin-2-one], with greater than 30 µM; and `COc1cccc([C@H]2OC(=O)N[C@@H]2c2cccc(C#Cc3cccc(N(C)C)c3)c2)c1` [Example 58, (4R,5R)-4-(3-((3-(Dimethylamino)phenyl)ethnyl)phenyl)-5-(3-methoxyphenyl)oxazolidin-2-one], with greater than 30 µM.
In the case of `COc1cccc(C#Cc2cccc([C@H]3NC(=O)O[C@@H]3c3cccc(OC)c3)c2)c1` [Example 59, (4R,5R)-5-(3-Methoxyphenyl)-4-(3-((3-methoxyphenyl)ethynyl)phenyl)oxazolidin-2-one] it was less than 0.1 µM.
In the case of `COc1cccc([C@H]2OC(=O)N[C@@H]2c2cccc(C#Cc3ccnc(C)c3)c2)c1` [Example 60, (4R,5R)-5-(3-Methoxyphenyl)-4-(3-((2-methylpyridin-4-yl)ethnyl)phenyl)oxazolidin-2-one] it was greater than 1 µM; in that of `COc1cccc([C@H]2OC(=O)N[C@@H]2c2cccc(C#Cc3cccc(OC)n3)c2)c1` [Example 61], less than 0.1 µM.
In the case of `COc1cccc([C@H]2OC(=O)N[C@@H]2c2cccc(C#Cc3ncc[nH]3)c2)c1` [Example 62, (4R,5R)-4-(3-((1H-imidazol-2-yl)ethnyl)phenyl)-5-(3-methoxyphenyl)oxazolidin-2-one], the EC50 was greater than 1 µM.
Regarding `COc1cccc([C@H]2OC(=O)N[C@@H]2c2cccc(C#Cc3cnccn3)c2)c1` [Example 63, (4R,5R)-5-(3-Methoxyphenyl)-4-(3-(pyrazin-2-ylethynyl)phenyl)oxazolidin-2-one], the EC50 was less than 0.1 µM.
Then `COc1cccc([C@H]2OC(=O)N[C@@H]2c2cccc(C#Cc3ncccn3)c2)c1` [Example 64, (4R,5R)-5-(3-Methoxyphenyl)-4-(3-(pyrimidin-2-ylethynyl)phenyl)oxazolidin-2-one], with greater than 30 µM.

Values taken from patent USRE49735E1 (BRISTOL-MYERS SQUIBB COMPANY, priority 2010, dated 2023).
